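Each compound was tested at five concentrations against cells in 96-well plates for 48 hours. GI50: concentration for 50% inhibition of growth. TGI is the concentration that stops growth completely.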
Key:
Test in all cases: inhibition of tumour cell growth, NCI panel, 48 h
A549 NSCLC = system: A549 NSCLC
T-47D breast = system: T-47D breast
HOP-92 NSCLC = system: HOP-92 NSCLC
U251 CNS = system: U251 CNS
MOLT-4 leukemia = system: MOLT-4 leukemia
CAKI-1 renal = system: CAKI-1 renal
EKVX NSCLC = system: EKVX NSCLC
SNB-75 CNS = system: SNB-75 CNS
SK-MEL-5 melanoma = system: SK-MEL-5 melanoma
RXF 393 renal = system: RXF 393 renal
SK-MEL-2 melanoma = system: SK-MEL-2 melanoma
SK-MEL-28 melanoma = system: SK-MEL-28 melanoma
HCT-15 colon = system: HCT-15 colon
BT-549 breast = system: BT-549 breast
MALME-3M melanoma = system: MALME-3M melanoma
KM12 colon = system: KM12 colon
MDA-MB-231 breast = system: MDA-MB-231 breast
NCI-H23 lung = system: NCI-H23 lung
SF-295 CNS = system: SF-295 CNS
OVCAR-5 ovarian = system: OVCAR-5 ovarian
PC-3 prostate = system: PC-3 prostate
CCRF-CEM leukemia = system: CCRF-CEM leukemia
OVCAR-4 ovarian = system: OVCAR-4 ovarian
NCI-H226 lung = system: NCI-H226 lung
K-562 leukemia = system: K-562 leukemia
A498 renal = system: A498 renal
MCF7 breast = system: MCF7 breast
NCI-H522 lung = system: NCI-H522 lung
HS 578T breast = system: HS 578T breast
IGROV1 ovarian = system: IGROV1 ovarian
UACC-62 melanoma = system: UACC-62 melanoma
ACHN renal = system: ACHN renal
COLO 205 colon = system: COLO 205 colon
HOP-62 NSCLC = system: HOP-62 NSCLC
HCC-2998 colon = system: HCC-2998 colon
SNB-19 CNS = system: SNB-19 CNS
SF-268 CNS = system: SF-268 CNS
NCI/ADR-RES ovarian = system: NCI/ADR-RES ovarian
HT29 colon = system: HT29 colon
HL-60(TB) leukemia = system: HL-60(TB) leukemia
TK-10 renal = system: TK-10 renal
SF-539 CNS = system: SF-539 CNS
SK-OV-3 ovarian = system: SK-OV-3 ovarian
NCI-H460 lung = system: NCI-H460 lung
SW-620 colon = system: SW-620 colon
HCT-116 colon = system: HCT-116 colon
OVCAR-3 ovarian = system: OVCAR-3 ovarian
RPMI-8226 leukemia = system: RPMI-8226 leukemia
MDA-MB-435 = system: MDA-MB-435
UACC-257 melanoma = system: UACC-257 melanoma
786-0 renal = system: 786-0 renal
SR leukemia = system: SR leukemia
LOX IMVI melanoma = system: LOX IMVI melanoma
SN12C renal = system: SN12C renal
DU-145 prostate = system: DU-145 prostate
UO-31 renal = system: UO-31 renal

Compound: CCOC(=O)c1c(NC(=O)COc2cccc3cccnc23)sc(C(=O)N(C)C)c1C
- GI50 (A549 NSCLC): 18.5 µM
- TGI (A549 NSCLC): 46.2 µM
- GI50 (T-47D breast): 5.24 µM
- TGI (T-47D breast): 27.8 µM
- GI50 (HOP-92 NSCLC): 14.2 µM
- TGI (HOP-92 NSCLC): 55.1 µM
- GI50 (U251 CNS): 25.2 µM
- TGI (U251 CNS): > 100 µM
- GI50 (MOLT-4 leukemia): 16.4 µM
- TGI (MOLT-4 leukemia): 44.3 µM
- GI50 (CAKI-1 renal): 20.7 µM
- TGI (CAKI-1 renal): 77.6 µM
- GI50 (EKVX NSCLC): 23 µM
- TGI (EKVX NSCLC): 61 µM
- GI50 (SNB-75 CNS): 19.1 µM
- TGI (SNB-75 CNS): 63.1 µM
- GI50 (SK-MEL-5 melanoma): 8.8 µM
- TGI (SK-MEL-5 melanoma): 21.1 µM
- GI50 (RXF 393 renal): 13 µM
- TGI (RXF 393 renal): 34.2 µM
- GI50 (SK-MEL-2 melanoma): 18.5 µM
- TGI (SK-MEL-2 melanoma): 45.5 µM
- GI50 (SK-MEL-28 melanoma): 16.9 µM
- TGI (SK-MEL-28 melanoma): 33.4 µM
- GI50 (HCT-15 colon): 18.5 µM
- TGI (HCT-15 colon): 48.5 µM
- GI50 (BT-549 breast): 14.1 µM
- TGI (BT-549 breast): 32.4 µM
- GI50 (MALME-3M melanoma): 20.1 µM
- TGI (MALME-3M melanoma): 46.6 µM
- GI50 (KM12 colon): 15.7 µM
- TGI (KM12 colon): 35.3 µM
- GI50 (MDA-MB-231 breast): 23.7 µM
- TGI (MDA-MB-231 breast): > 100 µM
- GI50 (NCI-H23 lung): 14.7 µM
- TGI (NCI-H23 lung): 36.5 µM
- GI50 (SF-295 CNS): 13.5 µM
- TGI (SF-295 CNS): 30.9 µM
- GI50 (OVCAR-5 ovarian): 17.4 µM
- TGI (OVCAR-5 ovarian): 37.3 µM
- GI50 (PC-3 prostate): 17.5 µM
- TGI (PC-3 prostate): 63 µM
- GI50 (CCRF-CEM leukemia): 14.1 µM
- TGI (CCRF-CEM leukemia): 82.3 µM
- GI50 (OVCAR-4 ovarian): 22.1 µM
- TGI (OVCAR-4 ovarian): 65.8 µM
- GI50 (NCI-H226 lung): 17.9 µM
- TGI (NCI-H226 lung): 50.1 µM
- GI50 (K-562 leukemia): 19.7 µM
- TGI (K-562 leukemia): 48.9 µM
- GI50 (A498 renal): 26.6 µM
- TGI (A498 renal): 66.7 µM
- GI50 (MCF7 breast): 19 µM
- TGI (MCF7 breast): 42.5 µM
- GI50 (NCI-H522 lung): 13.8 µM
- TGI (NCI-H522 lung): 30.3 µM
- GI50 (HS 578T breast): 15.5 µM
- TGI (HS 578T breast): 44.6 µM
- GI50 (IGROV1 ovarian): 16.7 µM
- TGI (IGROV1 ovarian): 49.2 µM
- GI50 (UACC-62 melanoma): 11.8 µM
- TGI (UACC-62 melanoma): 27.9 µM
- GI50 (ACHN renal): 24.1 µM
- TGI (ACHN renal): 75.5 µM
- GI50 (COLO 205 colon): 17.4 µM
- TGI (COLO 205 colon): 55.5 µM
- GI50 (HOP-62 NSCLC): 19.6 µM
- TGI (HOP-62 NSCLC): 58 µM
- GI50 (HCC-2998 colon): 17.2 µM
- TGI (HCC-2998 colon): 35.2 µM
- GI50 (SNB-19 CNS): 33.9 µM
- TGI (SNB-19 CNS): > 100 µM
- GI50 (SF-268 CNS): 22.4 µM
- TGI (SF-268 CNS): 82 µM
- GI50 (NCI/ADR-RES ovarian): 6 µM
- TGI (NCI/ADR-RES ovarian): 34.3 µM
- GI50 (HT29 colon): 25.4 µM
- TGI (HT29 colon): 61.6 µM
- GI50 (HL-60(TB) leukemia): 18.1 µM
- TGI (HL-60(TB) leukemia): 39.9 µM
- GI50 (TK-10 renal): 41 µM
- TGI (TK-10 renal): > 100 µM
- GI50 (SF-539 CNS): 21.9 µM
- TGI (SF-539 CNS): 48 µM
- GI50 (SK-OV-3 ovarian): 36.2 µM
- TGI (SK-OV-3 ovarian): > 100 µM
- GI50 (NCI-H460 lung): 13.6 µM
- TGI (NCI-H460 lung): 33.3 µM
- GI50 (SW-620 colon): 25.8 µM
- TGI (SW-620 colon): 72.4 µM
- GI50 (HCT-116 colon): 14.6 µM
- TGI (HCT-116 colon): 45.6 µM
- GI50 (OVCAR-3 ovarian): 20.8 µM
- TGI (OVCAR-3 ovarian): 69.8 µM
- GI50 (RPMI-8226 leukemia): 7.93 µM
- TGI (RPMI-8226 leukemia): 36.8 µM
- GI50 (MDA-MB-435): 16.1 µM
- TGI (MDA-MB-435): 31.5 µM
- GI50 (UACC-257 melanoma): 18.6 µM
- TGI (UACC-257 melanoma): 48 µM
- GI50 (786-0 renal): 20.7 µM
- TGI (786-0 renal): 79.7 µM
- GI50 (SR leukemia): 31.6 µM
- TGI (SR leukemia): 83.5 µM
- GI50 (LOX IMVI melanoma): 22 µM
- TGI (LOX IMVI melanoma): 55.1 µM
- GI50 (SN12C renal): 33.5 µM
- TGI (SN12C renal): > 100 µM
- GI50 (DU-145 prostate): 18.5 µM
- TGI (DU-145 prostate): 39.2 µM
- GI50 (UO-31 renal): 21.4 µM
- TGI (UO-31 renal): 55.6 µM

Source: PubChem BioAssay (NCI)
